What was measured:
[1] = Subcutaneous Pentylenetetrazole Seizure Threshold Test, scMet; type: in vivo; settings: for PI scMet: Protective Index, ratio of TD50 vs ED50 scMet; for ED50: sc
Excerpt: The compounds of structural formula I are new chemical substances of value as pharmacological agents for the treatment of convulsions in warm-bloodedanimals. The term convulsions is intended to mean the characteristic body movements which are associated with the group of chronic central nervous system disorders termed, epilepsies. The anticonvulsant activity of representative compounds of formula I was established by the following standard test procedures: […]
3. Subcutaneous Pentylenetetrazole Seizure Threshold Test, scMet.
(§1) These procedures are described in E. A. Swinyard, et al., Epilepsia, 19, 409 (1978), which is incorporated herein by reference. The TD50 is defined as the median minimal neurotoxic dose.

[2] = Maximal Electroshock Seizure Test, MES; type: in vivo; settings: for PI MES: Protective Index, ratio of TD50 vs ED50 MES
Excerpt: (§2) The term convulsions is intended to mean the characteristic body movements which are associated with the group of chronic central nervous system disorders termed, epilepsies.
2. Maximal Electroshock Seizure Test, MES.
as §1

[3] = Rotorod Test, TD50; settings: in vivo
Excerpt: as §2, §1

CCC1(c2ccccc2)NC(=O)N(C)C1=O (stereo not shown) [MEPHENYTOIN]
PI scMet [1]: 5.05 | ED50 [1]: 30.4 mg/kg | ED50 [2]: 60.5 mg/kg | PI MES [2]: 2.54 | TD50 [3]: 154 mg/kg

Cc1nn(C)c(N)c1C(=O)Nc1cccc(Cl)c1 [5-Amino-N-(3-chlorophenyl)-1,3-dimethyl-1H-pyrazole-4-carboxamide]
PI scMet [1]: 2.35 | ED50 [1]: 99.6 mg/kg | ED50 [2]: 47.3 mg/kg | PI MES [2]: 4.95 | TD50 [3]: 234 mg/kg

NC(=O)N1c2ccccc2C=Cc2ccccc21 [CARBAMAZEPINE]
ED50 [2]: 8.81 mg/kg

Cc1ccccc1NC(=O)c1c(C)nn(C)c1N [5-Amino-1,3-dimethyl-N-(2-methylphenyl)-1H-pyrazole-4-carboxamide]
PI scMet [1]: 1.94 | ED50 [1]: 53.7 mg/kg | ED50 [2]: 25.7 mg/kg | PI MES [2]: 4.05 | TD50 [3]: 104 mg/kg

Reference: patent publication US4346097A, “Method for treating convulsions with pyrazole-4-carboxamide derivatives” (Warner-Lambert Company, priority 1980, dated 1982)
